The subject of test [1] is subcellular and chromatographic fractions of K-562 cell lysate. Nature of the test: Binding of [14C]-plitidepsin to K-562 lysate fractions. As to conditions: 500 nM [14C]-plitidepsin with or without 10 μM unlabeled plitidepsin, 1 h, room temperature, subcellular fractions. As to the method:
Figure 4 Identification of the plitidepsin-binding protein in a K-562 cells lysate. […] In the horizontal axis “P” and “S” mean “pellet” and “supernatant”, respectively, with the figure aside denoting the relative centrifugal force (in thousands of g) used to obtain such fraction. Data (in dpm per mg of protein) represent the mean of three independent samples with error bars showing S.D. * means p < 0.05. (C) Anion-exchange chromatography on DEAE, flow rate 5 mL/min. (D) Cation-exchange chromatography on SP, flow rate 2.5 mL/min. (E) Size exclusion chromatography on Superdex 200, flow rate 4 mL/min. Representative fractions (4-mL) from each portion of the eluates were analyzed for their binding to [^14C]-plitidepsin in the presence (grey bars, non-specific binding) or absence (black bars, total binding) of a 20-fold excess of unlabeled drug. Only fractions showing significant specific binding to the radioligand were pooled and progressed to the next chromatographic step. In all cases absorbance is expressed in mAU and conductivity in mS/cm.
The rest of the peptides detected in this material corresponded to fragments whose sequences are common to both isoforms, thus discarding the presence of any other protein.
After 1 h incubation at room temperature 400 μL of each tube were withdrawn and processed as described above.

Test [2] deals with eEF1A1 purified from rabbit liver (Oryctolagus cuniculus, UniProt P68105). As to conditions: saturation binding, [14C]-plitidepsin, 1 h, room temperature, triplicate, Swillens fit (Supplementary Figure 4).
Protocol: All samples in binding assays were tested in triplicate. […] After 1 h incubation at room temperature, 450 μL were withdrawn, filtered through GF/C filters (Millipore, Bedford, CA) and washed three times with the same buffer used for the incubation. Filters were then removed, dried and their radioactivity was finally counted as a measurement of total (specific and non-specific) bound drug. […] Scintillation counting was transformed into concentration values considering the specific activity of the radioligand and the sample volume. The concentration of bound radioligand was related to the total amount of radioligand in the sample using the expression derived by Swillens[12] to account for ligand depletion when the concentration of protein was similar to that of radioligand:
was purified from rabbit liver as described in ( 48) . Protein and radioligand wer e
incubated for 1 h at room temperature and samples were processed as described in the
Test [3] has as its system both eEF1A isoforms. As to conditions: cited from earlier work. From the text: (§1) Until now, very few chemical entities have been identified as modulators of eEF1A2. […] Other authors also reported the discovery of several flavonoids as well as phenanthridones (e.g ...
Test [4] concerns the target EF1A isolated from rabbit reticulocytes. As to conditions: cited from earlier work.
From the text: as §1

Test [5] addresses eEF1A-ribosome complex. As to conditions: binding to the eEF1A-ribosome complex; cited from earlier work.
From the text: as §1

The test system of test [6] is protein synthesis. As to conditions: cited from earlier work.

We go through four molecules from article PMC5054363 (Scientific Reports, 2016).

*1 amine or outer side, *2 acyl side, *3 side chain or, on linkers, in order; H or OH if unused. Where a SMILES comes first, the peptide text is derived from it. Bridges are numbered along the chain shown (N, C = ends). [ ]: non-standard residue; d: D form. The star is where a group is joined. X1 = CC[C@H](C)[C@@H](N[*:1])[C@@H](O)CC(=O)O[C@H](C(=O)[C@H](C)C(=O)[*:2])C(C)C; NMeY = CN[C@@H](Cc1ccc(O)cc1)C(=O)O; dNMeL = CN[C@H](CC(C)C)C(=O)O; Pyruvoyl = CC(=O)C(=O)*

eEF1A1 purified from rabbit liver, sequence (P68105 whole entry, canonical isoform): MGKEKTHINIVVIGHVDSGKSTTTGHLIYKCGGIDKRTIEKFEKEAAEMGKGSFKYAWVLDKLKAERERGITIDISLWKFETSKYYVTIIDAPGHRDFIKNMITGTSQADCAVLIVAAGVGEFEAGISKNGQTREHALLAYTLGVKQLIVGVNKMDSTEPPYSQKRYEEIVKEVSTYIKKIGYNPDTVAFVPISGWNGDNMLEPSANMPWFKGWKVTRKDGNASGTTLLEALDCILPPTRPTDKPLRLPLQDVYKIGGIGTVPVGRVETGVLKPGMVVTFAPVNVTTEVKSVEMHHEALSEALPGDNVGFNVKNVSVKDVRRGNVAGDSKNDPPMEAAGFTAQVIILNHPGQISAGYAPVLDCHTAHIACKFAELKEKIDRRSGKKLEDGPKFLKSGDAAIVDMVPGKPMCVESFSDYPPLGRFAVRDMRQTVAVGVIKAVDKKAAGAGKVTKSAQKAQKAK

The term Kd denotes the equilibrium constant for the complex coming apart. On to `CC[C@H](C)[C@H]1NC(=O)[C@@H](NC(=O)[C@@H](CC(C)C)N(C)C(=O)[C@@H]2CCCN2C(=O)C(C)=O)[C@@H](C)OC(=O)[C@H](Cc2ccc(OC)cc2)N(C)C(=O)[C@@H]2CCCN2C(=O)[C@H](CC(C)C)NC(=O)[C@@H](C)C(=O)[C@H](C(C)C)OC(=O)C[C@@H]1O` [[^14C]-plitidepsin] (Pyruvoyl-P[dNMeL]T[X1]LP[NMeY](Me); ester 3-C (inferred)), for which, in test [1] (pellets), the binding to pellets entry is recorded as “non-specifically”. Besides, the “binding to soluble fractions” value in test [1] (soluble) was “retained by the soluble fractions”. Binding in test [2] was characterised by a dissociation constant (Kd) of 0.183 ± 0.032 µM.

Take `O=C1N[C@@H]2C(=C[C@H](O)[C@@H](O)[C@H]2O)c2cc3c(c(O)c21)OCO3` [narciclasine]: the “binding to eEF1A isoforms” value in test [3] is given as “selectively bind to both eEF1A isoforms”.

In the case of `O=C1N[C@H]2[C@H](O)[C@H](O)[C@@H](O)[C@H](O)[C@@H]2c2cc3c(c(O)c21)OCO3` [pancratistatine], the “binding to eEF1A isoforms” value in test [3] was “selectively bind to both eEF1A isoforms”.

As to didemnin B, the Kd in test [4] (binding to EF1A) was 200 µM; in test [5], 4 µM. For the same molecule, the “interaction with eEF1A” value in test [4] (isoform not specified) is given as “interact with eEF1A”. For the same molecule, the protein synthesis inhibition entry in test [6] is “only at μM concentrations”.
